From BindingDB's records for PubMed 31434879 (University of California Irvine (UCI))

Legend:
[1] = Inhibition of FLT3 (unknown origin) expressed in mouse BaF3 cells assessed as inhibition of FLT3 ligand-FLT3 dependent cell proliferation incubated for 3 days by ATPlite 1step Luminescence Assay reagent based assay
[2] = Inhibition of FLT3-ITD (unknown origin) expressed in mouse BaF3 cells assessed as inhibition of FLT3-ITD dependent cell proliferation incubated for 3 days by ATPlite 1step Luminescence Assay reagent based assay

IC50 [1]: > 10 µM
IC50 [2]: > 10 µM
Compound: COc1ncc(F)cc1CNc1ccc(Cc2c[nH]c3ncc(C)cc23)c(F)n1 [US9096593, P-2049]
